Reference: ChEMBL document CHEMBL1148993, “UV-mediated genotoxicity of furanoquinoline and of certain tryptophan-derived alkaloids” (J Nat Prod, 1983)

Assays:
Escherichia coli [1] = assay: Phototoxicity against Escherichia coli at 16.7 ug/disk in dark; assay type: functional; settings: light or radiation study, read-out: IZ
Candida albicans [2] = assay: Phototoxicity against Candida albicans at 16.7 ug/disk after irradiation with W/m'2 UV light; assay type: functional; settings: light or radiation study, read-out: IZ
Escherichia coli [3] = assay: Phototoxicity against Escherichia coli at 16.7 ug/disk after irradiation with W/m'2 UV light; assay type: functional; settings: light or radiation study, read-out: IZ
CHO [4] = assay: Genotoxicity in CHO cells assessed as mitotic inhibition at 2.6 ppm after 60 mins in dark followed by 5 W/m'2 UV irradiation for 30 mins; assay type: toxicity, cell-based, Cricetulus griseus; settings: chinese hamster, 0.5 h
Enterococcus faecalis [5] = assay: Phototoxicity against Streptococcus faecalis at 16.7 ug/disk in dark; assay type: functional; settings: light or radiation study, read-out: IZ
Staphylococcus aureus [6] = assay: Phototoxicity against Staphylococcus aureus at 16.7 ug/disk in dark; assay type: functional; settings: light or radiation study, read-out: IZ
CHO [7] = assay: Genotoxicity in CHO cells assessed as chromosomal aberrations at 20.8 ppm after 60 mins in dark followed by 5 W/m'2 UV irradiation for 30 mins; assay type: toxicity, cell-based, Cricetulus griseus; settings: chinese hamster, 0.5 h
CHO [8] = assay: Genotoxicity in CHO cells assessed as chromosomal aberrations at 10.4 ppm after 60 mins in dark followed by 5 W/m'2 UV irradiation for 30 mins; assay type: toxicity, cell-based, Cricetulus griseus; settings: chinese hamster, 0.5 h
Saccharomyces cerevisiae [9] = assay: Phototoxicity against Saccharomyces cerevisiae at 16.7 ug/disk after irradiation with W/m'2 UV light; assay type: functional; settings: light or radiation study, read-out: IZ
Pseudomonas aeruginosa [10] = assay: Phototoxicity against Pseudomonas aeruginosa at 16.7 ug/disk in dark; assay type: functional; settings: light or radiation study, read-out: IZ
Staphylococcus aureus [11] = assay: Phototoxicity against Staphylococcus aureus at 16.7 ug/disk after irradiation with W/m'2 UV light; assay type: functional; settings: light or radiation study, read-out: IZ
Bacillus subtilis [12] = assay: Phototoxicity against Bacillus subtilis at 16.7 ug/disk after irradiation with W/m'2 UV light; assay type: functional; settings: light or radiation study, read-out: IZ
CHO [13] = assay: Genotoxicity in CHO cells assessed as chromosomal aberrations at 83.5 ppm after 60 mins in dark followed by 5 W/m'2 UV irradiation for 30 mins; assay type: toxicity, cell-based, Cricetulus griseus; settings: chinese hamster, 0.5 h
Pseudomonas aeruginosa [14] = assay: Phototoxicity against Pseudomonas aeruginosa at 16.7 ug/disk after irradiation with W/m'2 UV light; assay type: functional; settings: light or radiation study, read-out: IZ
CHO [15] = assay: Genotoxicity in CHO cells assessed as chromosomal aberrations at 83.5 ppm after 90 mins in dark; assay type: toxicity, cell-based, Cricetulus griseus; settings: chinese hamster, 1.5 h
Bacillus subtilis [16] = assay: Phototoxicity against Bacillus subtilis at 16.7 ug/disk in dark; assay type: functional; settings: light or radiation study, read-out: IZ
CHO [17] = assay: Genotoxicity in CHO cells assessed as chromosomal aberrations at 41.7 ppm after 60 mins in dark followed by 5 W/m'2 UV irradiation for 30 mins; assay type: toxicity, cell-based, Cricetulus griseus; settings: chinese hamster, 0.5 h
Candida albicans [18] = assay: Phototoxicity against Candida albicans at 16.7 ug/disk in dark; assay type: functional; settings: light or radiation study, read-out: IZ
Pseudomonas fluorescens [19] = assay: Phototoxicity against Pseudomonas fluorescens at 16.7 ug/disk in dark; assay type: functional; settings: light or radiation study, read-out: IZ
Pseudomonas fluorescens [20] = assay: Phototoxicity against Pseudomonas fluorescens at 16.7 ug/disk after irradiation with W/m'2 UV light; assay type: functional; settings: light or radiation study, read-out: IZ
Saccharomyces cerevisiae [21] = assay: Phototoxicity against Saccharomyces cerevisiae at 16.7 ug/disk in dark; assay type: functional; settings: light or radiation study, read-out: IZ
Enterococcus faecalis [22] = assay: Phototoxicity against Streptococcus faecalis at 16.7 ug/disk after irradiation with W/m'2 UV light; assay type: functional; settings: light or radiation study, read-out: IZ
CHO [23] = assay: Genotoxicity in CHO cells assessed as chromosomal aberrations at 5.2 ppm after 60 mins in dark followed by 5 W/m'2 UV irradiation for 30 mins; assay type: toxicity, cell-based, Cricetulus griseus; settings: chinese hamster, 0.5 h
Saccharomyces cerevisiae [24] = assay: Phototoxicity against Saccharomyces cerevisiae at 100 ug/disk in dark; assay type: functional; settings: light or radiation study, read-out: IZ
Pseudomonas fluorescens [25] = assay: Phototoxicity against Pseudomonas fluorescens at 100 ug/disk in dark; assay type: functional; settings: light or radiation study, read-out: IZ
Escherichia coli [26] = assay: Phototoxicity against Escherichia coli at 100 ug/disk in dark; assay type: functional; settings: light or radiation study, read-out: IZ
CHO [27] = assay: Genotoxicity in CHO cells assessed as chromosomal aberrations at 6.25 ppm after 60 mins in dark followed by 5 W/m'2 UV irradiation for 30 mins; assay type: toxicity, cell-based, Cricetulus griseus; settings: chinese hamster, 0.5 h
CHO [28] = assay: Genotoxicity in CHO cells assessed as mitotic inhibition at 3.12 ppm after 60 mins in dark followed by 5 W/m'2 UV irradiation for 30 mins; assay type: toxicity, cell-based, Cricetulus griseus; settings: chinese hamster, 0.5 h
CHO [29] = assay: Genotoxicity in CHO cells assessed as chromosomal aberrations at 1.56 ppm after 60 mins in dark followed by 5 W/m'2 UV irradiation for 30 mins; assay type: toxicity, cell-based, Cricetulus griseus; settings: chinese hamster, 0.5 h
Enterococcus faecalis [30] = assay: Phototoxicity against Streptococcus faecalis at 100 ug/disk in dark; assay type: functional; settings: light or radiation study, read-out: IZ
Enterococcus faecalis [31] = assay: Phototoxicity against Streptococcus faecalis at 100 ug/disk after irradiation with W/m'2 UV light; assay type: functional; settings: light or radiation study, read-out: IZ
Bacillus subtilis [32] = assay: Phototoxicity against Bacillus subtilis at 100 ug/disk after irradiation with W/m'2 UV light; assay type: functional; settings: light or radiation study, read-out: IZ
Staphylococcus aureus [33] = assay: Phototoxicity against Staphylococcus aureus at 100 ug/disk in dark; assay type: functional; settings: light or radiation study, read-out: IZ
Bacillus subtilis [34] = assay: Phototoxicity against Bacillus subtilis at 100 ug/disk in dark; assay type: functional; settings: light or radiation study, read-out: IZ
Candida albicans [35] = assay: Phototoxicity against Candida albicans at 100 ug/disk in dark; assay type: functional; settings: light or radiation study, read-out: IZ
CHO [36] = assay: Genotoxicity in CHO cells assessed as chromosomal aberrations at 0.39 ppm after 60 mins in dark followed by 5 W/m'2 UV irradiation for 30 mins; assay type: toxicity, cell-based, Cricetulus griseus; settings: chinese hamster, 0.5 h
CHO [37] = assay: Genotoxicity in CHO cells assessed as chromosomal aberrations at 0.78 ppm after 60 mins in dark followed by 5 W/m'2 UV irradiation for 30 mins; assay type: toxicity, cell-based, Cricetulus griseus; settings: chinese hamster, 0.5 h
CHO [38] = assay: Genotoxicity in CHO cells assessed as chromosomal aberrations at 12.5 ppm after 90 mins in dark; assay type: toxicity, cell-based, Cricetulus griseus; settings: chinese hamster, 1.5 h
Candida albicans [39] = assay: Phototoxicity against Candida albicans at 100 ug/disk after irradiation with W/m'2 UV light; assay type: functional; settings: light or radiation study, read-out: IZ
Escherichia coli [40] = assay: Phototoxicity against Escherichia coli at 100 ug/disk after irradiation with W/m'2 UV light; assay type: functional; settings: light or radiation study, read-out: IZ
Staphylococcus aureus [41] = assay: Phototoxicity against Staphylococcus aureus at 100 ug/disk after irradiation with W/m'2 UV light; assay type: functional; settings: light or radiation study, read-out: IZ
CHO [42] = assay: Genotoxicity in CHO cells assessed as chromosomal aberrations at 12.5 ppm after 60 mins in dark followed by 5 W/m'2 UV irradiation for 30 mins; assay type: toxicity, cell-based, Cricetulus griseus; settings: chinese hamster, 0.5 h
Saccharomyces cerevisiae [43] = assay: Phototoxicity against Saccharomyces cerevisiae at 100 ug/disk after irradiation with W/m'2 UV light; assay type: functional; settings: light or radiation study, read-out: IZ
Pseudomonas fluorescens [44] = assay: Phototoxicity against Pseudomonas fluorescens at 100 ug/disk after irradiation with W/m'2 UV light; assay type: functional; settings: light or radiation study, read-out: IZ
Pseudomonas aeruginosa [45] = assay: Phototoxicity against Pseudomonas aeruginosa at 100 ug/disk in dark; assay type: functional; settings: light or radiation study, read-out: IZ
Pseudomonas aeruginosa [46] = assay: Phototoxicity against Pseudomonas aeruginosa at 100 ug/disk after irradiation with W/m'2 UV light; assay type: functional; settings: light or radiation study, read-out: IZ
CHO [47] = assay: Genotoxicity in CHO cells assessed as chromosomal aberrations at 0.19 ppm after 60 mins in dark followed by 5 W/m'2 UV irradiation for 30 mins; assay type: toxicity, cell-based, Cricetulus griseus; settings: chinese hamster, 0.5 h

COc1cc2nccc3c4ccccc4n(c1=O)c23 [5-METHOXYCANTHINONE]
zone of inhibition at 16.7 µg/disc (Escherichia coli [1]): 0 mm | zone of inhibition at 16.7 µg/disc (Candida albicans [2]): 12 mm | zone of inhibition at 16.7 µg/disc (Escherichia coli [3]): 7 mm | Activity (CHO [4]): Active | zone of inhibition at 16.7 µg/disc (Enterococcus faecalis [5]): 0 mm | zone of inhibition at 16.7 µg/disc (Staphylococcus aureus [6]): 0 mm | Activity (CHO [7]): Toxic | Activity (CHO [8]): Toxic | zone of inhibition at 16.7 µg/disc (Saccharomyces cerevisiae [9]): 6 mm | zone of inhibition at 16.7 µg/disc (Pseudomonas aeruginosa [10]): 0 mm | zone of inhibition at 16.7 µg/disc (Staphylococcus aureus [11]): 8 mm | zone of inhibition at 16.7 µg/disc (Bacillus subtilis [12]): 8 mm | Activity (CHO [13]): Toxic | zone of inhibition at 16.7 µg/disc (Pseudomonas aeruginosa [14]): 0 mm | Activity (CHO [15]): 0% | zone of inhibition at 16.7 µg/disc (Bacillus subtilis [16]): 8 mm | Activity (CHO [17]): Toxic | zone of inhibition at 16.7 µg/disc (Candida albicans [18]): 0 mm | zone of inhibition at 16.7 µg/disc (Pseudomonas fluorescens [19]): 0 mm | zone of inhibition at 16.7 µg/disc (Pseudomonas fluorescens [20]): 0 mm | zone of inhibition at 16.7 µg/disc (Saccharomyces cerevisiae [21]): 0 mm | zone of inhibition at 16.7 µg/disc (Enterococcus faecalis [22]): 0 mm | Activity (CHO [23]): Toxic

Cc1ncc(C2CCCN2C)c2c1[nH]c1ccccc12 (configuration not stated) [BREVIOCOLLINE]
zone of inhibition at 100 µg/disc (Saccharomyces cerevisiae [24]): 0 mm | zone of inhibition at 100 µg/disc (Pseudomonas fluorescens [25]): 0 mm | zone of inhibition at 100 µg/disc (Escherichia coli [26]): 0 mm | Activity (CHO [27]): Toxic | Activity (CHO [28]): Active | Activity (CHO [29]): 56% | zone of inhibition at 100 µg/disc (Enterococcus faecalis [30]): 0 mm | zone of inhibition at 100 µg/disc (Enterococcus faecalis [31]): 14 mm | zone of inhibition at 100 µg/disc (Bacillus subtilis [32]): 12.5 mm | zone of inhibition at 100 µg/disc (Staphylococcus aureus [33]): 0 mm | zone of inhibition at 100 µg/disc (Bacillus subtilis [34]): 0 mm | zone of inhibition at 100 µg/disc (Candida albicans [35]): 0 mm | Activity (CHO [36]): 5.5% | Activity (CHO [37]): 37.1% | Activity (CHO [38]): 0% | zone of inhibition at 100 µg/disc (Candida albicans [39]): 9.5 mm | zone of inhibition at 100 µg/disc (Escherichia coli [40]): 15.5 mm | zone of inhibition at 100 µg/disc (Staphylococcus aureus [41]): 15.3 mm | Activity (CHO [42]): Toxic | zone of inhibition at 100 µg/disc (Saccharomyces cerevisiae [43]): 7 mm | zone of inhibition at 100 µg/disc (Pseudomonas fluorescens [44]): 7 mm | zone of inhibition at 100 µg/disc (Pseudomonas aeruginosa [45]): 0 mm | zone of inhibition at 100 µg/disc (Pseudomonas aeruginosa [46]): 13 mm | Activity (CHO [47]): 0%
